US20060293307A1, “Oxazolidinone derivatives as antimicrobials” (priority 2002, published 2006)
In brackets after ≈: the same amount, converted by molar mass. Like-named read-outs stand apart in the source and are kept apart here.

What was measured:
Salmonella 205 = assay: MIC, agar incorporation method; type: cell-based; conditions: S. No. 26, Salmonella 205
Experimental: The compounds of the invention display antibacterial activity when tested by the agar incorporation method. The following minimum inhibitory concentrations (μg/ml) were obtained for representative compounds of the invention which are given below in the following tables.
Briefly, the compounds were dissolved in DMSO and doubling dilution of the compounds were incorporated into Meer Hilton agar before solidification. Inoculum was prepared by suspending 4 to 5 colonies into 5 ml of normal saline solution and adjusting the turbidity to 0.5 Macfarland turbidity standard tables (1.5×10^8 CFU/ml), after appropriate dilutions, 10^4 CFU/spot was transfered into the surface of dried plate and incubated for 18 hours (24 hours for MRSN studies). The concentration showing no growth of the inoculated culture was recorded as the MIC. Appropriate ATCC standard strains were simultaneously tested and result recorded only when the MIC's against standard antibiotics were within the acceptable range.

K. oxytoca 49131 = assay: MIC, agar incorporation method; type: cell-based
S. pneumoniae AB 34 = assay: MIC, agar incorporation method; type: cell-based, Streptococcus pneumoniae
S. pyogenes 20361 = assay: MIC, agar incorporation method; type: cell-based, Streptococcus pyogenes
S. aureus ATCC 25923 = assay: MIC, agar incorporation method; type: cell-based, Staphylococcus aureus
S. pneumoniae AB-3 = assay: MIC, agar incorporation method; type: cell-based, Streptococcus pneumoniae
[1] = test system: S. aureus (MRSA 33) Cipro R; assay: MIC, agar incorporation method; type: cell-based, Staphylococcus aureus
S. pneumoniae AB 31 = assay: MIC, agar incorporation method; type: cell-based, Streptococcus pneumoniae
S. pneumoniae AB 25 = assay: MIC, agar incorporation method; type: cell-based, Streptococcus pneumoniae
E. faecium 6A (VRE) = assay: MIC, agar incorporation method; type: cell-based, Enterococcus faecium
S. pneumoniae AB 29 = assay: MIC, agar incorporation method; type: cell-based, Streptococcus pneumoniae
S. pneumoniae AB 22 = assay: MIC, agar incorporation method; type: cell-based, Streptococcus pneumoniae
S. pneumoniae AB 10 = assay: MIC, agar incorporation method; type: cell-based, Streptococcus pneumoniae
[2] = test system: S. epidermidis (MRSE) 23760; assay: MIC, agar incorporation method; type: cell-based, Staphylococcus epidermidis
H. influenzae 23 = assay: MIC against Haemophilus strains; type: cell-based; conditions: s. No. 5, H. influenzae 23
S. pneumoniae AB 14 = assay: MIC, agar incorporation method; type: cell-based, Streptococcus pneumoniae
P. aeruginosa ATCC 27853 = assay: MIC, agar incorporation method; type: cell-based
S pneumoniae 1294. = assay: MIC, agar incorporation method; type: cell-based, Streptococcus pneumoniae
E. faecalis SP 346 (VRE) = assay: MIC, agar incorporation method; type: cell-based
S. pneumoniae CS1221 = assay: MIC, agar incorporation method; type: cell-based, Streptococcus pneumoniae
S. pneumoniae CS 1687 = assay: MIC, agar incorporation method; type: cell-based, Streptococcus pneumoniae
[3] = S. No. 7, S. aureus (MRSA 33) Cipro R
[4] = S. No. 11, S. epidermidis (MRSE) 23760
[5] = S. No. 28, P. aeruginosa ATCC 27853
[6] = S. No. 20, E. faecalis SP 346 (VRE)
[7] = S. No. 34, S. pneumoniae CS1221
[8] = S. No. 44, S. pneumoniae CS 1687

SMILES	MIC (Salmonella 205)	MIC (K. oxytoca 49131; S. No. 27, K. oxytoca 49131)	MIC (S. pneumoniae AB 34; S. No. 49, S. pneumoniae AB 34)	MIC (S. pyogenes 20361; S. No. 53, S. pyogenes 20361)	MIC (S. aureus ATCC 25923; S. No. 1, organism cell empty)	MIC (S. pneumoniae AB-3; S. No. 32, S. pneumoniae AB-3)	MIC [1, 3]	MIC (S. pneumoniae AB 31; S. No. 36, S. pneumoniae AB 31)	MIC (S. pneumoniae AB 25; S. No. 45, S. pneumoniae AB 25)	MIC (E. faecium 6A (VRE); S. No. 21, E. faecium 6A (VRE))	MIC (S. pneumoniae AB 29; S. No. 46, S. pneumoniae AB 29)	MIC (S. pneumoniae AB 22; S. No. 42, S. pneumoniae AB 22)	MIC (S. pneumoniae AB 10; S. No. 35, S. pneumoniae AB 10)	MIC [2, 4]	MIC (H. influenzae 23)	MIC (S. pneumoniae AB 14; S. No. 37, S. pneumoniae AB 14)	MIC (P. aeruginosa ATCC 27853; [5])	MIC (S pneumoniae 1294.; S. No. 55, S pneumoniae 1294.)	MIC (E. faecalis SP 346 (VRE); [6])	MIC (S. pneumoniae CS1221; [7])	other results
CC(=O)NC[C@H]1CN(c2ccc(N3CCN(c4cc(C(OC(C)=O)OC(C)=O)sc4[N+](=O)[O-])CC3)c(F)c2)C(=O)O1 [Compound No. 5, (S)—N-[[3-[3-Fluoro-4-[4-{3-thienyl(2-nitro)-5-acetyloxy}methylacetate]-1-piperazinyl]phenyl]-2-oxo-5-oxazolidinyl]acetamide]	>8 µg/mL	>8 µg/mL	0.5 µg/mL (≈ 0.842 µM)	0.5 µg/mL (≈ 0.842 µM)	0.5 µg/mL (≈ 0.842 µM)	0.5 µg/mL (≈ 0.842 µM)	0.25 µg/mL (≈ 0.421 µM)	0.5 µg/mL (≈ 0.842 µM)	0.5 µg/mL (≈ 0.842 µM)	2 µg/mL (≈ 3.37 µM)	0.5 µg/mL (≈ 0.842 µM)	0.5 µg/mL (≈ 0.842 µM)	0.25 µg/mL (≈ 0.421 µM)	<0.06 µg/mL	>16 µg/mL	0.5 µg/mL (≈ 0.842 µM)	>8 µg/mL	0.5 µg/mL (≈ 0.842 µM)	2 µg/mL (≈ 3.37 µM)	0.5 µg/mL (≈ 0.842 µM)	MIC (S. pneumoniae CS 1687; [8]): 0.5 µg/mL (≈ 0.842 µM)
CC(=O)NC[C@H]1CN(c2ccc(N3CCN(c4ccc([N+](=O)[O-])s4)CC3)cc2)C(=O)O1 [Compound No. 6, (S)—N-[[3-[4-[N-1-(5-nitro-2-thienyl)piperazinyl]-phenyl]-2-oxo-5-oxazolidinyl]-methyl]-acetamide]	>16 µg/mL	>16 µg/mL	0.5 µg/mL (≈ 1.12 µM)	0.5 µg/mL (≈ 1.12 µM)	2 µg/mL (≈ 4.49 µM)	0.25 µg/mL (≈ 0.561 µM)	1 µg/mL (≈ 2.24 µM)	0.5 µg/mL (≈ 1.12 µM)	0.5 µg/mL (≈ 1.12 µM)	1 µg/mL (≈ 2.24 µM)	0.5 µg/mL (≈ 1.12 µM)	0.25 µg/mL (≈ 0.561 µM)	0.25 µg/mL (≈ 0.561 µM)	1 µg/mL (≈ 2.24 µM)	16 µg/mL (≈ 35.9 µM)	<0.125 µg/mL	>16 µg/mL	0.5 µg/mL (≈ 1.12 µM)	1 µg/mL (≈ 2.24 µM)	0.25 µg/mL (≈ 0.561 µM)	MIC (S. pneumoniae CS 1687; [8]): 0.5 µg/mL (≈ 1.12 µM)
CN[C@H](CC(C)C)C(=O)N[C@H]1C(=O)N[C@@H](CC(N)=O)C(=O)N[C@H]2C(=O)N[C@H]3C(=O)N[C@H](C(=O)N[C@H](C(=O)O)c4cc(O)cc(O)c4-c4cc3ccc4O)[C@H](O)c3ccc(c(Cl)c3)Oc3cc2cc(c3O[C@@H]2O[C@H](CO)[C@@H](O)[C@H](O)[C@H]2O[C@H]2C[C@](C)(N)[C@H](O)[C@H](C)O2)Oc2ccc(cc2Cl)[C@H]1O [Vancomycin, reference compound]																					MIC (Salmonella 205; read-out: MIC): > 16 µg/mL; MIC (K. oxytoca 49131; Klebsiella oxytoca, 49131): > 16 µg/mL; MIC (S. pneumoniae AB 34; Streptococcus pneumoniae, AB34): 0.25 µg/mL (≈ 0.173 µM); MIC (S. pyogenes 20361; Streptococcus pyogenes, 20361): 0.5 µg/mL (≈ 0.345 µM); MIC (S. aureus ATCC 25923; Staphylococcus aureus, ATCC25923): 1 µg/mL (≈ 0.69 µM); MIC (S. pneumoniae AB-3; Streptococcus pneumoniae, AB3): 0.5 µg/mL (≈ 0.345 µM); MIC ([1]; Staphylococcus aureus, MRSA): 0.5 µg/mL (≈ 0.345 µM); MIC (S. pneumoniae AB 31; Streptococcus pneumoniae, AB31): 0.25 µg/mL (≈ 0.173 µM); MIC (S. pneumoniae AB 25; Streptococcus pneumoniae, AB25): 0.25 µg/mL (≈ 0.173 µM); MIC (E. faecium 6A (VRE); Enterococcus faecium, VRE): > 16 µg/mL; MIC (S. pneumoniae AB 29; Streptococcus pneumoniae, AB29): 0.25 µg/mL (≈ 0.173 µM); MIC (S. pneumoniae AB 22; Streptococcus pneumoniae, AB22): 0.25 µg/mL (≈ 0.173 µM); MIC (S. pneumoniae AB 10; Streptococcus pneumoniae, AB10): 0.25 µg/mL (≈ 0.173 µM); MIC ([2]; Staphylococcus epidermidis, MRSE): 2 µg/mL (≈ 1.38 µM); MIC (S. pneumoniae AB 14; Streptococcus pneumoniae, AB14): 0.25 µg/mL (≈ 0.173 µM); MIC (P. aeruginosa ATCC 27853; Pseudomonas aeruginosa, ATCC27853): > 16 µg/mL; MIC (S pneumoniae 1294.; Streptococcus pneumoniae, 1294.): 0.5 µg/mL (≈ 0.345 µM); MIC (E. faecalis SP 346 (VRE); Enterococcus faecalis, VRE): > 16 µg/mL; MIC (S. pneumoniae CS1221; Streptococcus pneumoniae, CS1221): 0.25 µg/mL (≈ 0.173 µM); MIC (S. pneumoniae CS 1687; Streptococcus pneumoniae, CS1687): 0.25 µg/mL (≈ 0.173 µM)
